Data from patent publication US11952603B2, “Method for reducing or inactivating viral and microbial content in the processes for the manufacture of pancreatin” (SCIENTIFIC PROTEIN LABORATORIES, LLC, priority 2015, dated 2024).
Read-outs that look alike come from different tables or passages of the source.

Assays:
[1] = system: aerobic microorganisms (TAMC); assay: Total Aerobic Microbial Count (TAMC) of porcine pancreas glands after PAA treatment
Procedure: For the preparation of pancreatin, 3 kg thawed whole porcine pancreas glands and 3 kg of porcine pancreas glands cut into approximately 2-inch strips were submerged in two different concentrations of PAA, 500 ppm and 2000 ppm for 10 and 15 minutes at room temperature (18-22° C.). Treated glands were rinsed with process water and placed into a sterile sample bag and stored at −20° C. for freezing not less than 12 hours. A total of 6 samples were tested per run. The preparation was executed 2 times. […] Whole gland (A)—500 ppm; • 2. Whole gland (B)—2000 ppm; • 3. Strip gland (A)—500 ppm; • 4. Strip gland (B)—2000 ppm; • 5. Whole gland (C)—No treatment-Control; • 6. Strip gland (C)—No treatment-Control. For all result see Tables 1 and 2.
The strip glands remained consistent.
For the preparation of pancreatin, 3 kg thawed whole glands and 3 kg of milled gland were submerged in two different concentrations of PAA, 500 ppm and 2000 ppm for 10 and 15 minutes at room temperature (18-22° C.). Treated glands were rinsed with purified water and placed into a sterile sample bag and stored at −20° C. for freezing not less than 12 hours. A total of 6 samples were tested per run. The preparation was executed 2 times. Milled glands were difficult to process due to slurry being formed after PAA treatment. […] Whole gland (A)—500 ppm; • 2. Whole gland (B)—2000 ppm; • 3. Milled gland (A)—500 ppm; • 4. Milled gland (B)—2000 ppm; • 5. Whole gland (C)—No treatment-Control; • 6. Milled gland (C)—No treatment-Control. For all results see table 3 and 4.
The TAMC results for both the whole glands and milled before PAA treatments were similar with 1400 and 1100 CFU/g. After 500 ppm and 2000 ppm PAA treatment, the TAMC results for the treated whole glands were exactly the same, 10 CFU/g. The milled glands were not tested after PAA treatment. See results in table 3.

[2] = system: Porcine circovirus type 2 (PCV 2); assay: Infectious PCV-2 titer by cell based in vitro assay using PK-13 cells (Large Volume Plating, interference assay); conditions: 500 and 2000 ppm, endogenous virus
[3] = system: Encephalomycarditis Virus (EMC); assay type: cell-based, Encephalomyocarditis virus; conditions: 10,000 ppm PAA
[4] = system: Murine Minute Virus (MMV); assay: Viral clearance of spiked MMV on PAA-treated glands, TCID50 endpoint assay; assay type: cell-based; conditions: 10,000 ppm PAA, 30 min sample vs Recovery Control 0 minute
virus = assay: Transmission electron microscopy of gland tissue and pancreatin powder for virus; conditions: 20,000 ppm PAA for 30 minutes
Procedure: Electron Microscopic Study: Referring to FIGS. 4A-4D, transmission electron microscopy (TEM) and scanning electron microscopy (SEM) were performed to visualize the presence of bacteria and viruses on surface of pancreas gland tissue and pancreatin powder treated with differing concentration of PAA and were compared to non-treated (control) samples.
Pancreas gland tissues treated with PAA and untreated samples as well as resulting pancreatin powder produced with PAA treatment were analyzed with TEM and SEM. For SEM samples were coated with an ultrathin coating of electrically conducting material, deposited on the sample by low-vacuum sputter coating evaporation. A conductive material in current coating used was gold to observe bacteria and viruses. A ZEISS LEO-1530 DSM scanning electron microscope was used to produce the images of FIGS. 4A and 4B. […] (scale bar is 2 μm). […] Viruses are very small in size (15 to 100 nm) and were not possible to observe in SEM. For TEM the pancreas gland tissue and pancreatin powder sample treated with 20,000 ppm PAA for 30 minutes and control samples were stained with 2% uranyl acetate (aq). A Model H-7600 HITACHI transmission electron microscope, Version 3.01, was used to produces the images of FIGS. 4C and 4D. Three TEM slides of each treatment were observed. Each TEM slide had 400 grids to observe. A minimum of 10-15 grids per slide were observed.

vegetative bacteria = conditions: within 1 min at 25° C., 1.3 mmol/L of PAA; cited from earlier work
[5] = system: Gram-positive and Gram negative bacteria, fungi and yeasts; conditions: at concentrations of <100 ppm; cited from earlier work
viruses = conditions: cited from earlier work
[6] = Strip Gland, Run # 1, Example 1
[7] = Whole Gland, Run # 1, Example 1
[8] = Whole Gland, Run # 2, Example 1

For `CC(=O)OO` [PAA, Peracetic acid], the “TAMC After Treatment at 500 ppm” value [1, 6] was 130 CFU/g, the “TAMC After Treatment at 2000 ppm” value [1, 6] was 45 CFU/g and the “TAMC After 500 ppm PAA Treatment” value ([1]; Whole Gland, Example 2) was 10 CFU/g. For the same compound, the “TAMC After 2000 ppm PAA Treatment” value ([1]; Whole Gland, Example 2) was 10 CFU/g, the “TAMC After Treatment at 500 ppm” value [1, 7] was 90 CFU/g and the “TAMC After Treatment at 2000 ppm” value [1, 7] was 50 CFU/g. The “TAMC After Treatment at 500 ppm” value [1, 8] was 30 CFU/g, the “TAMC After Treatment at 2000 ppm” value [1, 8] was 10 CFU/g and the “effect of PAA surface treatment in PCV-2 infectivity test” value [2] was “no discernable effect”. For the same compound, the EMC reduction factor ([3]; at 15 minutes) was “about 1.75 log10”, the EMC reduction factor ([3]; calculated using the 30 min sample) was “about 0.8 log10” and the MMV reduction factor [4] was 3.0±0.9 Log10. For the same compound, the “virus in pancreas gland tissue (TEM)” value (virus) was “No virus was observed”, the “reduction factor in the number of vegetative bacteria” value (vegetative bacteria) was 10^6 and the time to inactivate [5] was “less than 5 minutes”. The “dosage range for viruses” value (viruses) was 100-40,000 ppm.
